Counter-ions that a name gives are not always drawn. Where only a bound is given, the exact number is not on record here.

Broadly, the IC50 is the point on the concentration scale where inhibition reaches its midpoint.

Data set [1] deals with human embryonic kidney (HEK) 293 T cells.
Data set [2] has as its system pseudotyped Vesicular Stomatitis Virus (pHIV-VSVGP-Fluc). In kind it is cell-based, Vesicular Stomatitis Virus (VSV). As to conditions: read-out: Anti-VSV IC50.
Data set [3] deals with pseudotyped EBOV virus (pHIV-EBOVGP-Fluc). In kind it is cell-based, Ebola virus (EBOV). As to conditions: for IC50: read-out: Anti-EBOV IC50.
Data set [4] is described as follows: in vitro. The following applies: human.
In data set [5] the test system is pHIV-MARVGP-Fluc virus. Also on record: species or system BALB/c mice. The following applies: mouse, ip.

Turning to `O=C(O)CC1C2CCCN3CCCC(CN1CCCc1cc(Cl)cc(Cl)c1)C23` (stereo not drawn) [15f, 12N-3′,5′-Dichlorohydrocinnamyl matrinic acetic acid], in data set [1], the CC50 was found to be 83.3 µM.

In the case of `O=C(O)CCCC1C2CCCN3CCCC(CN1C(=O)c1ccc(Cl)cc1)C23` (stereo not drawn) [5b, 12N-p-Chlorobenzoyl sophoridinic acid], the CC50 in data set [1] was over 200 µM. Besides, the IC50 in data set [2] and in data set [3] was over 200 µM throughout.

Regarding `COC(=O)CCCC1C2CCCN3CCCC(CN1S(=O)(=O)c1ccc(Cl)cc1)C23` (stereo not drawn) [4c, Methyl 12N-p-chlorobenzenesulfonyl sophoridinate], the CC50 in data set [1] was over 22 µM. Also, the IC50 in data set [2] was over 22 µM. In data set [3], the SI was over 7.59 and the IC50 was determined as 2.9 µM.

In data set [1], `O=C(O)CC1C2CCCN3CCCC(CN1Cc1ccc(Cl)cc1)C23` (stereo not drawn) [11a, 12N-p-Chlorobenzyl matrinic acetic acid] displayed a CC50 of over 200 µM. Further, the 50% inhibitory concentration (IC50) in data set [2] and in data set [3] was over 200 µM throughout.

Take `O=C(O)CC1C2CCCN3CCCC(CN1C(=O)c1ccc(Cl)cc1)C23` (stereo not drawn) [11b, 12N-p-Chlorobenzoyl matrinic acetic acid]: the CC50 in data set [1] is over 200 µM. For the same compound, the IC50 in data set [2] and in data set [3] was over 200 µM throughout.

`COC(=O)CC1C2CCCN3CCCC(CN1S(=O)(=O)c1ccc(Cl)cc1)C23.Cl` (stereo not drawn) [10c, Methyl 12N-p-chlorobenzesulfonyl matrinic acetate hydrochloride] came in with a CC50 in data set [1] of over 200 µM. The IC50 in data set [2] was over 200 µM. Also, in data set [3], the SI is recorded as over 7.46 and the IC50 is 26.8 µM.

`COC(=O)CCCC1C2CCCN3CCCC(CN1Cc1ccc(Cl)c(Cl)c1)C23.Cl.Cl` (stereo not drawn) [4a, methyl 12N-3′,4′-dichlorobenzyl sophoridinate dihydrochloride] yielded a CC50 in data set [1] of 22.2 µM. Further, in data set [2], the IC50 came to 7.52 µM. In addition, in data set [3], the SI came out at 8.28 and the IC50 amounted to 2.68 µM.

In the case of `O=C(O)CCCC1C2CCCN3CCCC(CN1S(=O)(=O)c1ccc(Cl)cc1)C23` (stereo not drawn) [5c, 12N-p-Chlorobenzenesulfonyl sophoridinic acid], the half-inhibitory concentration (IC50) in data set [2] was over 200 µM. For the same compound, in data set [3], the SI is recorded as 17.5 and the half-maximal inhibitory concentration (IC50) worked out at 11.4 µM.

Take `COC(=O)CC1C2CCCN3CCCC(CN1Cc1ccc(Cl)c(Cl)c1)C23.Cl.Cl` (stereo not drawn) [10d, Methyl 12N-3′,4′-dichlorobenzyl matrinic acetate dihydrochloride]: the CC50 in data set [1] worked out at 153 µM. In data set [2], the IC50 was found to be 123 µM. Further, in data set [3], the SI is 15.3 and the IC50 came out at 10 µM.

Turning to `CN[C@H]1CC[C@@H](c2ccc(Cl)c(Cl)c2)c2ccccc21` [Sertraline, sertraline], the CC50 in data set [4] was 29.2 µM. For the same compound, the “reduction (bioluminescence), in vivo anti-MARV” value in data set [5] is on record as “no activity at all”.

In turn, `COC(=O)CCC[C@@H]1[C@H]2CCCN3CCC[C@H](CN1C(=O)c1ccc(Cl)cc1)[C@@H]23` [4b, Methyl 12N-p-chlorobenzoyl sophoridinate] showed a CC50 in data set [1] of 200 µM. The values for the IC50 in data set [2] and in data set [3] were over 200 µM and 39.1 µM, respectively. This compound gave an SI in data set [3] of 5.12.

Consider `O=C(O)CCC[C@@H]1[C@H]2CCCN3CCC[C@@H](CN1Cc1ccc(Cl)cc1)[C@@H]23` [8a, 12N-p-Chlorobenzyl matrinic acid dihydrochloride], for which the CC50 in data set [1] amounted to 200 µM. Besides, the IC50 in data set [2] and in data set [3] was over 200 µM in each case.

`COC(=O)CCCC1C2CCCN3CCCC(CN1Cc1ccc(Cl)cc1)C23.Cl.Cl` (stereo not drawn) [7a, Methyl 12N-p-chlorobenzyl matrinate dihydrochloride] registered a CC50 in data set [1] of 200 µM. Besides, the half-inhibitory concentration (IC50) in data set [2] was 188 µM. Besides, in data set [3], the SI is 7.87 and the concentration for half-maximal inhibition (IC50) was determined as 25.4 µM.

Source of the values: article PMC6089848 (Acta Pharmaceutica Sinica. B, 2018).
